17 compounds from patent US8129371B2, “Thienopyrimidine and pyrazolopyrimidine compounds and their use as mTOR kinase and PI3 kinase inhibitors” (Wyeth LLC, priority 2007, dated 2012) can be followed below.

Like-named read-outs stand apart in the source and are kept apart here.

In general, IC50 refers to the concentration needed to halve the response being measured.

One assay concerns the target T1, Human mTOR (FLAG-TOR) (Homo sapiens, UniProt P42345).
T1 construct: FLAG
In words: Human mTOR kinase assay with purified enzyme, DELFIA format. It counts as biochemical. A digest of the protocol:
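DELFIA readout: Eu-anti-P(T389)-S6K antibody (40 ng/mL, 1 h) on captured His6-S6K from the stopped reaction. Kinase step used purified FLAG-tagged human mTOR with test compound in HEPES (pH 7.4)/MnCl2/DTT buffer, 2 h at room temperature (linear 1–6 h), terminated by EDTA/EGTA.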

The target of assay [1] is T2, PI3K (Homo sapiens, UniProt P42336).
T2 construct: PI3 Kinase α IC50; other: PI3 Kinase α; other: PI3 Kinase α isoform, fluorescence polarization
T2 sequence (P42336 whole entry, canonical isoform): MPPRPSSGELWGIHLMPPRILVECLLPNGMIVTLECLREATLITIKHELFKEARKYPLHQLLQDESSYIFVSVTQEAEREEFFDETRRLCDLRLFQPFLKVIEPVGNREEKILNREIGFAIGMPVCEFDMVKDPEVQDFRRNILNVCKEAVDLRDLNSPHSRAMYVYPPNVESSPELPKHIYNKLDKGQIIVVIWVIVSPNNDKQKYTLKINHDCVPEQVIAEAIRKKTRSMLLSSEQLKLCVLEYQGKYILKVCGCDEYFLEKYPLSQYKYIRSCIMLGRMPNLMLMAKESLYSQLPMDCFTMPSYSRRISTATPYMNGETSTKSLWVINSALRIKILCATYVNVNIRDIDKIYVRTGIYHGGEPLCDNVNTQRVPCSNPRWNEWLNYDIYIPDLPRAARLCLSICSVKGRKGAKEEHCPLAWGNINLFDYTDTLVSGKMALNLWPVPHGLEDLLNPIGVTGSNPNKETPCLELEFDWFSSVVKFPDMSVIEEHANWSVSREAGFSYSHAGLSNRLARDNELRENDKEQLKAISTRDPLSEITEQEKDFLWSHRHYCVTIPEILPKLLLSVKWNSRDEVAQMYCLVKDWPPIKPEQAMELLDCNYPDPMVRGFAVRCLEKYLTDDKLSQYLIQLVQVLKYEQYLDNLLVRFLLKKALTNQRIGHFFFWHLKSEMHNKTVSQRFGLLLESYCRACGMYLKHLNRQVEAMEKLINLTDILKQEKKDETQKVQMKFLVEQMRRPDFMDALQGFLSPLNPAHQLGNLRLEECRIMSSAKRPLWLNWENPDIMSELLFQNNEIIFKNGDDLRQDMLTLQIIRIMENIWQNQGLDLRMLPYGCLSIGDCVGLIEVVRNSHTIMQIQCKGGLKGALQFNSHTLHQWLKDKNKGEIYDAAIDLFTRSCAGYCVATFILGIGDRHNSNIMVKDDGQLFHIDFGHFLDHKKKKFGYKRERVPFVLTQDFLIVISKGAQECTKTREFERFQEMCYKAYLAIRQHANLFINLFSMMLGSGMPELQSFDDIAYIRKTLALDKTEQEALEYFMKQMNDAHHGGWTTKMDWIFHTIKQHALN
The experiment in a line: Fluorescence polarization assay for PI3K. The following applies: read-out: PI3 Kinase α IC50. It counts as biochemical. A digest of the protocol: (§1)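 Fluorescence-polarization competition readout: after 30–60 min of PIP2/ATP turnover in 1% DMSO, a stop mix with GST-GRP (70 nM) and red probe (10 nM) was added.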
For orientation: In fluorescence polarisation assays a small probe gives low polarisation when free and higher when bound to something large.

The target of assay [2] is T3, PI3K (Homo sapiens, UniProt P48736).
T3 construct: PI3 Kinase γ IC50; other: PI3 Kinase γ; other: PI3 Kinase γ isoform, fluorescence polarization
T3 sequence (P48736 whole entry, canonical isoform): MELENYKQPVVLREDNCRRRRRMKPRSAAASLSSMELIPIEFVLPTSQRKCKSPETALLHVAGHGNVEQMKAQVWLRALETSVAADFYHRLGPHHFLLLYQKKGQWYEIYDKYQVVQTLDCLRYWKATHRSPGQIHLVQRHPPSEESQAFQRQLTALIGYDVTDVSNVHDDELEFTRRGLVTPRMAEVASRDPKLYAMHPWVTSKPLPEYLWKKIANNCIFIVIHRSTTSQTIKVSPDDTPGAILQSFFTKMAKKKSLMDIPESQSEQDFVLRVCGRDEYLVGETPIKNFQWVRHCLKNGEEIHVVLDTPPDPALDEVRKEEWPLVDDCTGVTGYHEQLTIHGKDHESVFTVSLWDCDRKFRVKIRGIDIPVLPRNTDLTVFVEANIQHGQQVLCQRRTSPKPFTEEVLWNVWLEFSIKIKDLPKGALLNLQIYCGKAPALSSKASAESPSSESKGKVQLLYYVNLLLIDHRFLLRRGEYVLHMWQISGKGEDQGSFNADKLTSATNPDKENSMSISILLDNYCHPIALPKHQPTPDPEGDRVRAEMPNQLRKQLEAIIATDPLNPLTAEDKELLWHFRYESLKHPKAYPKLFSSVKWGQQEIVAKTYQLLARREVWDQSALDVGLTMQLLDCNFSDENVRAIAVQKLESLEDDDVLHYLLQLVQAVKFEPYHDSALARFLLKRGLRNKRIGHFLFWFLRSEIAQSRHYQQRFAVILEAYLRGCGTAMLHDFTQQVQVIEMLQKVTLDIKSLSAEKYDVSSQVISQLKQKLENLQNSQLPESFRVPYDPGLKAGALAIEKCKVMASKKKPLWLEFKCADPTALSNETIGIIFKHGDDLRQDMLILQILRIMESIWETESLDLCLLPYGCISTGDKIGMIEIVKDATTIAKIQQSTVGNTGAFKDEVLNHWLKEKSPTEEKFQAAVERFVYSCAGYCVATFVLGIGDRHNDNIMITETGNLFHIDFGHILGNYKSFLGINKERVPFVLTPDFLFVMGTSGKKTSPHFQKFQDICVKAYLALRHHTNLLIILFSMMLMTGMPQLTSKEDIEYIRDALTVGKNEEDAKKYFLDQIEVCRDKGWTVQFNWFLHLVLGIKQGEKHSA
The experiment in a line: Fluorescence polarization assay for PI3K. It counts as biochemical. The note with it: read-out: PI3 Kinase γ IC50. A digest of the protocol:
as §1

The subject of the next assay is prostate line LNCap. In words: In vitro cell culture growth assay (MTS), LNCap. It counts as cell-based. The following applies: Homo sapiens, LNCaP, 72 h, LNCap cells, three days after drug treatment. A digest of the protocol: (§2)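 Cells were plated and, one day later, treated with inhibitors. Three days after treatment, viable cell density was measured by MTS dye conversion, read as absorbance at 490 nm. Effects are expressed as percent of control growth versus vehicle-treated cells on the same plate.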

In the next assay the test system is breast line MDA468. In words: In vitro cell culture growth assay (MTS), MDA468. It is filed as cell-based. The following applies: Homo sapiens, 72 h, MDA468 cells, three days after drug treatment. A digest of the protocol: as §2
Setting [3] is: purified human mTOR enzyme, DELFIA format.
[4] abbreviates: PI3 Kinase α isoform, fluorescence polarization.
[5] abbreviates: PI3 Kinase γ isoform, fluorescence polarization.

On to `CNC(=O)Nc1ccc(-c2nc(N3CC4CCC(C3)O4)c3cnn(CCF)c3n2)cc1` [Example 241, 1-{4-[1-(2-fluoroethyl)-4-(8-oxa-3-azabicyclo[3.2.1]oct-3-yl)-1H-pyrazolo[3,4-d]pyrimidin-6-yl]phenyl}-3-methylurea], for which the IC50 is 0.95 nM against Human mTOR (FLAG-TOR); 551 nM on PI3K [1] (PI3 Kinase α); over 10000 nM on PI3K [2] (PI3 Kinase γ); 110 nM in the assay with prostate line LNCap; 230 nM in the assay on breast line MDA468.
With `CCn1ncc2c(N3CC4CCC(C3)O4)nc(-c3ccc(NC(=O)OCCO)cc3)nc21` [Example 45, 2-hydroxyethyl {4-[1-ethyl-4-(8-oxa-3-azabicyclo[3.2.1]oct-3-yl)-1H-pyrazolo[3,4-d]pyrimidin-6-yl]phenyl}carbamate], the IC50 against Human mTOR (FLAG-TOR) is 1.2 nM; at PI3K [1] (PI3 Kinase α), 1610 nM; at PI3K [2] (PI3 Kinase γ), over 10000 nM; in the assay on prostate line LNCap, 100 nM; in the assay on breast line MDA468, 270 nM.
As for `COC(=O)N1CCC(n2ncc3c(N4CC5CCC(C4)O5)nc(-c4ccc(NC(=O)NCCN5CCN(C)CC5)cc4)nc32)CC1` [Example 170, methyl 4-{6-[4-({[2-(4-methylpiperazin-1-yl)ethyl]carbamoyl}amino)phenyl]-4-(8-oxa-3-azabicyclo[3.2.1]oct-3-yl)-1H-pyrazolo[3,4-d]pyrimidin-1-yl}piperidine-1-carboxylate], the IC50 at Human mTOR (FLAG-TOR) turned out to be 51 nM; at PI3K [1] (PI3 Kinase α), 705 nM; at PI3K [2] (PI3 Kinase γ), 4420 nM; in the assay on prostate line LNCap, 1300 nM; in the assay with breast line MDA468, 6000 nM.
As to `COC1CCC(n2ncc3c(N4CC5CCC(C4)O5)nc(-c4ccc(NC(=O)OCCO)cc4)nc32)CC1` (stereo not shown) [Example 311, 2-hydroxyethyl {4-[1-(4-methoxycyclohexyl)-4-(8-oxa-3-azabicyclo[3.2.1]oct-3-yl)-1H-pyrazolo[3,4-d]pyrimidin-6-yl]phenyl}carbamate], the IC50 on Human mTOR (FLAG-TOR) (setting [3]) is 0.86 nM; at PI3K [1] (setting [4]) it was 3840 nM; at PI3K [2] (setting [5]) it was over 10000 nM; in the assay on prostate line LNCap, 2 nM; in the assay on breast line MDA468, 120 nM.
For the compound `CCNC(=O)Nc1ccc(-c2nc(N3CC4CCC(C3)O4)c3sc(CN4CCN(S(C)(=O)=O)CC4)cc3n2)cc1` [Example 430, 1-ethyl-3-{4-[6-{[4-(methylsulfonyl)piperazin-1-yl]methyl}-4-(8-oxa-3-azabicyclo[3.2.1]oct-3-yl)thieno[3,2-d]pyrimidin-2-yl]phenyl}urea], the IC50 is 1.29 nM on Human mTOR (FLAG-TOR) (setting [3]); 113 nM on PI3K [1] (setting [4]); 1630 nM on PI3K [2] (setting [5]); 36 nM in the assay on prostate line LNCap; 90 nM in the assay with breast line MDA468.
With `COC1CCC(n2ncc3c(N4CC5CCC(C4)O5)nc(-c4ccc(NC(=O)Nc5ccc(N6CCNCC6)cc5)cc4)nc32)CC1` (stereo not shown) [Example 305, 1-{4-[1-(4-methoxycyclohexyl)-4-(8-oxa-3-azabicyclo[3.2.1]oct-3-yl)-1H-pyrazolo[3,4-d]pyrimidin-6-yl]phenyl}-3-(4-piperazin-1-ylphenyl)urea], the IC50 at Human mTOR (FLAG-TOR) (setting [3]) was 0.25 nM; on PI3K [1] (setting [4]) it was 182 nM; on PI3K [2] (setting [5]), 1520 nM; in the assay with prostate line LNCap, under 1 nM; in the assay on breast line MDA468, 1 nM.
With `O=C(Nc1ccc(-c2nc(N3CC4CCC(C3)O4)c3cnn(C4CCN(CC(F)(F)F)CC4)c3n2)cc1)OCCO` [Example 209, 2-hydroxyethyl (4-{4-(8-oxa-3-azabicyclo[3.2.1]oct-3-yl)-1-[1-(2,2,2-trifluoroethyl)piperidin-4-yl]-1H-pyrazolo[3,4-d]pyrimidin-6-yl}phenyl)carbamate], the IC50 against Human mTOR (FLAG-TOR) was 2.25 nM; on PI3K [1] (PI3 Kinase α), 3710 nM; at PI3K [2] (PI3 Kinase γ) it was 4950 nM; in the assay with prostate line LNCap, 40 nM; in the assay on breast line MDA468 it was 600 nM.
Consider `CNC(=O)Nc1ccc(-c2nc(N3CC4CCC(C3)O4)c3cnn(C4CCN(CC(F)(F)F)CC4)c3n2)cc1` [Example 26, 1-methyl-3-(4-{4-(8-oxa-3-azabicyclo[3.2.1]oct-3-yl)-1-[1-(2,2,2-trifluoroethyl)piperidin-4-yl]-1H-pyrazolo[3,4-d]pyrimidin-6-yl}phenyl)urea], for which the IC50 on Human mTOR (FLAG-TOR) is 1.1 nM; on PI3K [1] (PI3 Kinase α), 1280 nM; at PI3K [2] (PI3 Kinase γ) it was over 10000 nM; in the assay on prostate line LNCap, 27 nM; with breast line MDA468, 190 nM.
On to `COCC(COC)n1ncc2c(N3CC4CCC(C3)O4)nc(-c3ccc(NC(=O)Nc4ccc(N5CCNCC5)cc4)cc3)nc21` [Example 335, 1-(4-{1-[2-methoxy-1-(methoxymethyl)ethyl]-4-(8-oxa-3-azabicyclo[3.2.1]oct-3-yl)-1H-pyrazolo[3,4-d]pyrimidin-6-yl}phenyl)-3-(4-piperazin-1-ylphenyl)urea], for which the IC50 at Human mTOR (FLAG-TOR) (setting [3]) is 2.35 nM; on PI3K [1] (setting [4]), 273 nM; on PI3K [2] (setting [5]) it was 4480 nM; in the assay on prostate line LNCap, 28 nM; in the assay with breast line MDA468 it was 210 nM.
In the case of `O=C(NCCF)Nc1ccc(-c2nc(N3CC4CCC(C3)O4)c3cnn(CC(F)(F)F)c3n2)cc1` [Example 6, 1-(2-fluoroethyl)-3-{4-[4-(8-oxa-3-azabicyclo[3.2.1]oct-3-yl)-1-(2,2,2-trifluoroethyl)-1H-pyrazolo[3,4-d]pyrimidin-6-yl]phenyl}urea], the IC50 at Human mTOR (FLAG-TOR) was 0.22 nM; at PI3K [1] (PI3 Kinase α), 2750 nM; at PI3K [2] (PI3 Kinase γ) it was 6570 nM; with prostate line LNCap, under 27 nM; in the assay on breast line MDA468 it was under 27 nM.
Regarding `CC(C)(C)n1ncc2c(N3CC4CCC(C3)O4)nc(-c3ccc(NC(=O)Nc4ccncc4)cc3)nc21` [Example 101], the IC50 is 0.53 nM on Human mTOR (FLAG-TOR); 178 nM at PI3K [1] (PI3 Kinase α); 727 nM on PI3K [2] (PI3 Kinase γ); 19 nM in the assay on prostate line LNCap; 110 nM with breast line MDA468.
For `CNC(=O)Nc1ccc(-c2nc(N3CC4CCC(C3)O4)c3cnn(CCN(C)C)c3n2)cc1` [Example 153, 1-(4-{1-[2-(dimethylamino)ethyl]-4-(8-oxa-3-azabicyclo[3.2.1]oct-3-yl)-1H-pyrazolo[3,4-d]pyrimidin-6-yl}phenyl)-3-methylurea], in that order: 14.5 nM, 966 nM, 4240 nM, 400 nM and 2200 nM.
Consider `COC(=O)N1CCC(n2ncc3c(N4CC5CCC(C4)O5)nc(-c4ccc(NC(=O)Nc5ccccc5CO)cc4)nc32)CC1` [Example 172, methyl 4-{6-[4-({[2-(hydroxymethyl)phenyl]carbamoyl}amino)phenyl]-4-(8-oxa-3-azabicyclo[3.2.1]oct-3-yl)-1H-pyrazolo[3,4-d]pyrimidin-1-yl}piperidine-1-carboxylate], for which the IC50 against Human mTOR (FLAG-TOR) is 3.05 nM; at PI3K [1] (PI3 Kinase α) it was 1370 nM; on PI3K [2] (PI3 Kinase γ) it was 1730 nM; with prostate line LNCap, 200 nM; with breast line MDA468, 1300 nM.
Turning to `O=C(NCCO)Nc1ccc(-c2nc(N3CC4CCC(C3)O4)c3cnn(C4CCC5(CC4)OCCO5)c3n2)cc1` [Example 125, 1-{4-[1-(1,4-dioxaspiro[4.5]dec-8-yl)-4-(8-oxa-3-azabicyclo[3.2.1]oct-3-yl)-1H-pyrazolo[3,4-d]pyrimidin-6-yl]phenyl}-3-(2-hydroxyethyl)urea], the IC50 at Human mTOR (FLAG-TOR) is 0.235 nM; at PI3K [1] (PI3 Kinase α) it was 1350 nM; at PI3K [2] (PI3 Kinase γ), over 10000 nM; in the assay on prostate line LNCap, 8 nM; in the assay on breast line MDA468, 40 nM.
Turning to `CCn1nc(N2CCCC2)c2c(N3CC4CCC(C3)O4)nc(-c3ccc(NC(=O)Nc4cccnc4)cc3)nc21` [Example 346, 1-{4-[1-ethyl-4-(8-oxa-3-azabicyclo[3.2.1]oct-3-yl)-3-pyrrolidin-1-yl-1H-pyrazolo[3,4-d]pyrimidin-6-yl]phenyl}-3-pyridin-3-ylurea], the IC50 against Human mTOR (FLAG-TOR) (setting [3]) came to 10.9 nM; at PI3K [1] (setting [4]), 448 nM; on PI3K [2] (setting [5]), 372 nM; in the assay with prostate line LNCap, 290 nM; in the assay with breast line MDA468, 950 nM.
As to `COC(=O)N1CCC(n2ncc3c(N4CC5CCC(C4)O5)nc(-c4ccc(NC(=O)OCCN5CCOCC5)cc4)nc32)CC1` [Example 117, methyl 4-[6-(4-{[(2-morpholin-4-ylethoxy)carbonyl]amino}phenyl)-4-(8-oxa-3-azabicyclo[3.2.1]oct-3-yl)-1H-pyrazolo[3,4-d]pyrimidin-1-yl]piperidine-1-carboxylate], the IC50 was over 800 nM on Human mTOR (FLAG-TOR); over 10000 nM on PI3K [1] (PI3 Kinase α); over 10000 nM on PI3K [2] (PI3 Kinase γ); 4400 nM in the assay with prostate line LNCap; 22000 nM in the assay on breast line MDA468.
For the compound `O=C(Nc1ccc(-c2nc(N3CC4CCC(C3)O4)c3cnn([C@H]4CC[C@@H](O)CC4)c3n2)cc1)NC1CC1` (relative stereo) [Example 402, 1-cyclopropyl-3-{4-[1-(cis-4-hydroxycyclohexyl)-4-(8-oxa-3-azabicyclo[3.2.1]oct-3-yl)-1H-pyrazolo[3,4-d]pyrimidin-6-yl]phenyl}urea], the IC50 against Human mTOR (FLAG-TOR) (setting [3]) is 0.41 nM; at PI3K [1] (setting [4]), 2970 nM; on PI3K [2] (setting [5]), over 10000 nM; in the assay with prostate line LNCap, 2 nM; in the assay with breast line MDA468, 40 nM.
